In PubChem BioAssay AID1963856 (Molecular Pharmacology Branch, DTP, NCI, 2024):
pIC50: −log10 of the molar value.

System: LG0567-F671-PDC KRAS tumor spheroid viability
Test: Anticancer human tumor LG0567-F671-PDC patient-derived lung adenocarcinoma cell line growth inhibition [KRAS2]
Details: spheroids with HUVEC and MSC; for pIC50: curve of first compound; for viability, T/C: stronger effect = lower value
Source text: Multicellular complex tumor spheroid response to RAS pathway inhibitors in combination with a targeted agents in patient-derived cell lines with oncogenic KRAS variants from multiple cancer types
A high-throughput screen of multi-cell type tumor spheroids was designed to identify active combinations of targeted small molecules and KRAS pathway inhibitors. Complex spheroids include a stromal component modeled by human endothelial cells (HUVEC) and fibroblasts modeled by human mesenchymal stem cells (MSCs). The concentration ranges selected for each drug and investigational agent were based upon clinically achievable concentrations if the clinical Cmax of the agent was known.
Compounds. The drugs and investigational agents: BI-3406 (NSC825286), BAY-293 (NSC824723), batoprotafib (TNO155; NSC825523), sotorasib (AMG 510; NSC818433), MRTX1257 (NSC819558), elimusertib (BAY 1895344; NSC800525), molibresib (GSK525762; NSC774829), temuterkib (LY3214996; NSC803410), venetoclax (NSC766270), alisertib (NSC759677), olaparib (NSC753686), talazoparib (NSC767125), erdafitinib (NSC781556), ipatasertib (NSC767898), cabozantinib (NSC761068), nintedanib (NSC756659), abemaciclib (NSC768073), docetaxel (NSC628503), trametinib (NSC758246), and sapanisertib (NSC764658) were obtained from the National Cancer Institute (NCI) Developmental Therapeutics Program Chemical Repository. The FDA-approved anticancer drug set is available from the Developmental Therapeutics Program. […] The stock solutions were prepared in dimethyl sulfoxide (DMSO, Sigma-Aldrich, St. Louis, MO, cat. D2650) at 800-fold the tested concentration and stored at -70 degrees C prior to their use. All drugs and investigational agents were tested over a range starting from a high concentration at or near the clinical Cmax and decreasing in half-log increments. If the clinical Cmax for an agent had not been determined, the highest concentration tested was 10 microM.
Cell Culture. All cells were maintained in an incubator at 37 degrees C and 5% CO2 with 95% humidity. The PDC lines were cultured according to standard operating procedures established by the NCI PDMR (https://pdmr.cancer.gov/sops/default.htm). Briefly, all PDCs were thawed and cultured in Matrigel-coated flasks prepared with a working solution of 1X Ham's F-12 nutrient mix, without supplementation (Invitrogen, Waltham, MA, cat. 11765054), 100 U/mL penicillin-streptomycin (Invitrogen, cat. 15140122), and 2.5% Matrigel (Corning Inc., Corning, NY, cat. 354248) for the first three passages. All PDCs were cultured in complete DMEM/F-12 media containing advanced DMEM/F-12 (Invitrogen, cat. 12634028), 4.9% defined fetal bovine serum, heat inactivated (HyClone Laboratories Inc., Logan, UT, cat. SH30070.03HI), 389 ng/mL hydrocortisone (Sigma-Aldrich, cat. H4001), 9.7 ng/mL human EGF recombinant protein (Invitrogen, cat. PHG0313), 23.4 microg/mL adenine (Sigma-Aldrich, cat. A2786), 97.3 U/mL penicillin-streptomycin (Invitrogen, cat. 15140122), 1.9 mM L-glutamine (Invitrogen, cat. 25030081), and 9.7 microM Y-27632 dihydrochloride (Tocris Bioscience, Bristol, United Kingdom, cat. 1254). The PDCs were cultured in complete DMEM/F12 media without 9.7 microM Y-27632 dihydrochloride for at least two passages prior to the screen. The established cell line HOP-62 was cultured in RPMI 1640 medium, HEPES (Invitrogen, cat. 22400105) with 10% defined fetal bovine serum (HyClone Laboratories Inc., cat. SH30070.03) and 2 mM L-glutamine (Invitrogen, cat. 25030081). The pooled donor HUVEC were cultured in endothelial cell growth medium 2 (PromoCell, Heidelberg, Germany, cat. C-22011) and the hMSC were cultured in mesenchymal stem cell growth medium 2 (PromoCell, cat. C-28009). For all experiments, HUVEC and hMSC were used at passages </=5, while the malignant cell lines were used at passages </=15. […]

[1] = second compound 0.1 µM, first compound 0.0316 µM
[2] = second compound 0.1 µM, first compound 0.1 µM
[3] = second compound 0.1 µM, first compound 0.316 µM
[4] = second compound 0.1 µM, first compound 1 µM
[5] = second compound 0.1 µM, first compound 3.16 µM
[6] = second compound 0.316 µM, first compound 0.0316 µM
[7] = second compound 0.316 µM, first compound 0.1 µM
[8] = second compound 0.316 µM, first compound 0.316 µM
[9] = second compound 0.316 µM, first compound 1 µM
[10] = second compound 0.316 µM, first compound 3.16 µM
[11] = second compound 1 µM, first compound 0.0316 µM
[12] = second compound 1 µM, first compound 0.1 µM
[13] = second compound 1 µM, first compound 0.316 µM
[14] = second compound 1 µM, first compound 1 µM
[15] = second compound 1 µM, first compound 3.16 µM
[16] = second compound 3.16 µM, first compound 0.0316 µM
[17] = second compound 3.16 µM, first compound 0.1 µM
[18] = second compound 3.16 µM, first compound 0.316 µM
[19] = second compound 3.16 µM, first compound 1 µM
[20] = second compound 3.16 µM, first compound 3.16 µM
[21] = second compound 10 µM, first compound 0.0316 µM
[22] = second compound 10 µM, first compound 0.1 µM
[23] = second compound 10 µM, first compound 0.316 µM
[24] = second compound 10 µM, first compound 1 µM
[25] = second compound 10 µM, first compound 3.16 µM
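Also: drug exposure lasted seven days after spheroids formed for three days.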
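For viability, T/C in this document: 100% = DMSO vehicle control viability.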

## COC(=O)c1ccc2c(C(=Nc3ccc(N(C)C(=O)CN4CCN(C)CC4)cc3)c3ccccc3)c(O)[nH]c2c1 + CC1OCC2(CCN(c3cnc(Sc4ccnc(N)c4Cl)c(N)n3)CC2)C1N
Second compound 0.1 µM
  pIC50: < 5.00
Second compound 0.316 µM
  pIC50: > 7.50
Second compound 1 µM
  pIC50: > 7.50
Second compound 3.16 µM
  pIC50: > 7.50
Second compound 10 µM
  pIC50: > 7.50
[1]
  viability, T/C: 55.5%
[2]
  viability, T/C: 50.5%
[3]
  viability, T/C: 47.3%
[4]
  viability, T/C: 57.5%
[5]
  viability, T/C: 57.8%
Second compound 0.1 µM, first compound 10 µM
  viability, T/C: 51.8%
[6]
  viability, T/C: 29.1%
[7]
  viability, T/C: 29.2%
[8]
  viability, T/C: 26.4%
[9]
  viability, T/C: 39.5%
[10]
  viability, T/C: 36.3%
Second compound 0.316 µM, first compound 10 µM
  viability, T/C: 37.3%
[11]
  viability, T/C: 25.5%
[12]
  viability, T/C: 23.4%
[13]
  viability, T/C: 23.6%
[14]
  viability, T/C: 30.6%
[15]
  viability, T/C: 38.2%
Second compound 1 µM, first compound 10 µM
  viability, T/C: 34%
[16]
  viability, T/C: 19.5%
[17]
  viability, T/C: 20.1%
[18]
  viability, T/C: 19%
[19]
  viability, T/C: 24.1%
[20]
  viability, T/C: 32.5%
Second compound 3.16 µM, first compound 10 µM
  viability, T/C: 27.8%
[21]
  viability, T/C: 13.7%
[22]
  viability, T/C: 13.9%
[23]
  viability, T/C: 13.2%
[24]
  viability, T/C: 19.5%
[25]
  viability, T/C: 23.6%
Second compound 10 µM, first compound 10 µM
  viability, T/C: 26.7%

## CC(=O)OC12COC1CC(O)C1(C)C(=O)C(O)C3=C(C)C(OC(=O)C(O)C(NC(=O)OC(C)(C)C)c4ccccc4)CC(O)(C(OC(=O)c4ccccc4)C21)C3(C)C (stereo not given) + CNCc1ccccc1-c1csc(C(C)Nc2nc(C)nc3cc(OC)c(OC)cc23)c1
Second compound 0.1 µM
  pIC50: > 8.00
Second compound 0.316 µM
  pIC50: > 8.00
Second compound 1 µM
  pIC50: > 8.00
Second compound 3.16 µM
  pIC50: > 8.00
Second compound 10 µM
  pIC50: > 8.00
Second compound 0.1 µM, first compound 0.01 µM
  viability, T/C: 48.5%
[1]
  viability, T/C: 46.4%
[2]
  viability, T/C: 43.9%
[3]
  viability, T/C: 47.1%
[4]
  viability, T/C: 61.4%
[5]
  viability, T/C: 53.6%
Second compound 0.316 µM, first compound 0.01 µM
  viability, T/C: 35.6%
[6]
  viability, T/C: 34.3%
[7]
  viability, T/C: 34.4%
[8]
  viability, T/C: 42.4%
[9]
  viability, T/C: 39.5%
[10]
  viability, T/C: 40%
Second compound 1 µM, first compound 0.01 µM
  viability, T/C: 44%
[11]
  viability, T/C: 40.9%
[12]
  viability, T/C: 42.2%
[13]
  viability, T/C: 48.3%
[14]
  viability, T/C: 48.1%
[15]
  viability, T/C: 42.1%
Second compound 3.16 µM, first compound 0.01 µM
  viability, T/C: 24%
[16]
  viability, T/C: 0.94%
[17]
  viability, T/C: 0.36%
[18]
  viability, T/C: 0.26%
[19]
  viability, T/C: 0.19%
[20]
  viability, T/C: 37.5%
Second compound 10 µM, first compound 0.01 µM
  viability, T/C: 0.6%
[21]
  viability, T/C: 0.13%
[22]
  viability, T/C: 0.43%
[23]
  viability, T/C: 0.19%
[24]
  viability, T/C: 42.7%
[25]
  viability, T/C: 0.85%
